Test system: KE-37
Assay: Anticancer activity against human KE-37 cells assessed as reduction in cell viability
Assay type: functional, cell-based

C=CCc1cccc(/C=N/NC(=O)CN2CCN(Cc3ccccc3)CC2)c1O [PAC-1] gave an IC50 of 242 nM.
